Measured values published in ChEMBL document CHEMBL1131709, “Acyl-CoA: cholesterol acyltransferase inhibitory activity of ginseng sapogenins, produced from the ginseng saponins” (Bioorg Med Chem Lett, 1999).

The compounds below were run against T1, Sterol O-acyltransferase 1 (Rattus norvegicus, UniProt O70536) (assay: In vitro inhibitory activity of compound was measured on rat liver Acyl coenzyme A:cholesterol acyltransferase).
T1 sequence (O70536 whole entry): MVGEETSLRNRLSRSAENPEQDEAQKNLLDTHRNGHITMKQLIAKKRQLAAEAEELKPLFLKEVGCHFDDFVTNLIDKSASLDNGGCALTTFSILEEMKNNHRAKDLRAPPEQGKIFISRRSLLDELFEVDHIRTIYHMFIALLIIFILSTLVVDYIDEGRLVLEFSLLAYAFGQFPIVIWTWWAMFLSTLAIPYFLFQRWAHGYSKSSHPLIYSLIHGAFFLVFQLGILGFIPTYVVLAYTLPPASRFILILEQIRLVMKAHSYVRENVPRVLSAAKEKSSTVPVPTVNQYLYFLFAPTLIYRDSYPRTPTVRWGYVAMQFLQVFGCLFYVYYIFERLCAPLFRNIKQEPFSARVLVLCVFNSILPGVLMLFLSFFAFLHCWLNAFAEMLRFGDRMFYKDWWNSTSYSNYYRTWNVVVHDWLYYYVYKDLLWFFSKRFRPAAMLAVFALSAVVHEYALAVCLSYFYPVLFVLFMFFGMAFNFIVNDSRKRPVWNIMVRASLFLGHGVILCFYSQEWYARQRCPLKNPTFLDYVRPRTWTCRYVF

Q: `CC(C)=CCC[C@](C)(O)[C@H]1CC[C@]2(C)[C@@H]1[C@H](O)C[C@@H]1[C@@]3(C)CC[C@H](O)C(C)(C)[C@@H]3CC[C@]12C` was tested. Which IC50 did it give?
A: 30 µM

Q: For `CC1(C)CCC[C@](C)(C2CC[C@]3(C)C2[C@H](O)CC2[C@@]4(C)CC[C@H](O)C(C)(C)C4[C@@H](O)C[C@]23C)O1` (stereo partly drawn), which IC50 is on record?
A: 12 µM

Q: With `CC1(C)CCC[C@@](C)(C2CC[C@]3(C)C2[C@H](O)CC2[C@@]4(C)CC[C@H](O)C(C)(C)C4[C@@H](O)C[C@]23C)O1` (stereo partly drawn) as the compound, how does the IC50 read?
A: 28 µM

Q: Which IC50 does the source give for `CC(C)=CCC[C@](C)(O)C1CC[C@]2(C)C1[C@H](O)CC1[C@@]3(C)CC[C@H](O)C(C)(C)C3[C@@H](O)C[C@]12C` (stereo partly drawn) here?
A: 24 µM

Q: With `CC(C)=CCC[C@@](C)(O)[C@H]1CC[C@]2(C)[C@@H]1[C@H](O)C[C@@H]1[C@@]3(C)CC[C@H](O)C(C)(C)[C@@H]3CC[C@]12C` as the compound, how does the IC50 read?
A: 10 µM

Q: Which IC50 does the source give for `CC(C)=CCC[C@@](C)(O)[C@H]1CC[C@]2(C)C1[C@H](O)C[C@@H]1[C@@]3(C)CC[C@H](O)C(C)(C)[C@@H]3[C@@H](O)C[C@]12C` (stereo partly drawn) here?
A: 6 µM

Q: For `CC1(C)CCC[C@](C)(C2CC[C@]3(C)C2[C@H](O)CC2[C@@]4(C)CC[C@H](O)C(C)(C)C4CC[C@]23C)O1` (stereo partly drawn), which IC50 is on record?
A: 55 µM

Q: For `CC1(C)CCC[C@@](C)(C2CC[C@]3(C)C2[C@H](O)CC2[C@@]4(C)CC[C@H](O)C(C)(C)C4CC[C@]23C)O1` (stereo partly drawn), which IC50 is on record?
A: 25 µM
